The NIST ThermoML archive (doi:10.1021/je1012229)

Conditions: 101.33 kPa, Liquid, Vibrating tube method

CCCCn1cc[n+](C)c1.F[P-](F)(F)(F)(F)F [1-butyl-3-methylimidazolium hexafluorophosphate]
Conditions	mass density [kg/m3]
283.15 K	1380.2
293.15 K	1372
303.15 K	1362.6
313.15 K	1354.1
323.15 K	1345.7
333.15 K	1339.1
343.15 K	1331.7
353.15 K	1323.4
363.15 K	1314.2
